Turning to `NC(=O)c1cc(N)c(Oc2ccccc2)c(S(N)(=O)=O)c1`, the melting point is 291 to 292 °C.
Consider `CC(C)(C)CC(=O)NCc1cccc2c1C(=O)N(C1CCC(=O)NC1=O)C2=O` (configuration not stated), for which the melting point lay in the range of 145 to 147 °C.
On to `COc1ccc(C=C(C#N)C#N)cc1OC`, for which the melting point was 108 °C.
Turning to `CC12C=CC(=O)C=C1CCC1C2C(=O)CC2(C)C(SCc3ccc(Cl)c(Cl)c3)CCC12` (configuration not stated), the melting point lay within 131 to 133 °C.
Turning to `O=C(O)Cc1ccc(COc2cccc(-c3c(-c4ccccc4)cnc4c(C(F)(F)F)cccc34)c2)cc1`, the melting point is 122 °C.
Regarding `O=C1COC(Nc2ccccc2)=C1C(=O)Nc1ccccc1`, the melting point was in the range of 182 to 184 °C.
With `COc1ccccc1CN=C1C2CCN(CC2)C1C(c1ccccc1)c1ccccc1` (configuration not stated), the melting point was 154 to 158 °C.
Regarding `COC(=O)C(Cc1ccc(OC)c(C(=O)NCc2ccc(C(F)(F)F)cc2)c1)S(C)(=O)=O` (configuration not stated), the melting point was in the range of 144 to 145 °C.
The compound `CCCCN[C@@H]1CN(CC)C[C@H]1O` (relative stereo) came in with a melting point of 57.5 to 59 °C.
The value for `Cc1cccc(CCc2c(C(C)C)nc(C(C)C)c(CO)c2-c2ccc(F)cc2)c1` was 148 to 150 °C.
In the case of `CCOC(=O)[C@H](Cc1ccc(-c2c(OC)cc(CO)cc2OC)cc1)NC(=O)c1c(Cl)cccc1Cl`, the melting point amounted to 121 °C.
The compound `CC(C)(C)OC(=O)NCCCCC(=O)NCCC(=O)O` gave a melting point of 70 °C.
Compound `Cc1cc(-c2ccc(S(C)(=O)=O)cc2)n(-c2ccc(F)cc2)c1Br` showed a melting point of 158 to 159 °C.
The value for `CCN1c2ncc(CCc3ccncc3)cc2C(=O)N(C)c2ccc(Cl)nc21` was 158 to 159 °C; that for `CCOC(=O)Cc1ccc(-c2nc(COc3ccc(COc4nn(-c5ccccc5)cc4/C=C/c4coc(C(C)(C)C)n4)cc3OC)c(C)o2)cc1` was 126 to 129 °C.
In turn, `O=C1CCC(N2C(=O)c3cccc(OCc4ccc(CN5CCc6ncccc6C5)cc4)c3C2=O)C(=O)N1` (configuration not stated) had a melting point of 165 to 167 °C.
As for `Cn1cc(S(=O)(=O)C(F)(F)F)c(-c2ccc(Cl)cc2)c1Cl`, the melting point lay in the range of 117 to 119 °C.
`COc1ccc(-c2nc(C(=O)N3CCN(C(=O)NC(C)C)CC3)sc2-c2ccc(OC)cc2)cc1` displayed a melting point of 157 to 159 °C.
On to `COc1ccc(C(=O)Cl)cc1I`, for which the melting point came out at 58 °C.
Compound `C=CC(CC(=O)Nc1ccc(F)cc1)C(C)C` (configuration not stated) had a melting point of 74 to 75 °C.
Take `COc1ccc(C(=O)N2CCCC(=O)c3ccc(Cl)cc3CCC2=O)cc1`: the melting point stood at 143 °C.
For the compound `CNc1ncnc2c1ncn2/C=C/c1cc(NC(=O)c2cccc(C(F)(F)F)c2)ccc1C`, the melting point is 201 °C.
The value for `COC(=O)c1ccc(-c2nnc3n2-c2cccnc2Nc2ccccc2-3)cc1` was over 300 °C; that for `CCN1C(=O)C(=C(O)Cc2ccccc2)SC1=S` was 74 to 76 °C.
In turn, `CCOC(=O)c1snc(-c2ccccc2)c1C(=O)OCC` registered a melting point of 70 to 71.5 °C.
In turn, `COc1ccc2nc(-c3csc4ccccc34)[nH]c(=O)c2c1` came in with a melting point of 289 to 290 °C.
Take `CC(Cc1cc(I)c(Oc2ccc(O)cc2)c(I)c1)(NC=O)C(=O)O` (configuration not stated): the melting point lay within 221 to 223 °C.
On to `CCOC(=O)c1c2ccc(CC(=O)NOCCO)ccc-2c(C(=O)OCC)c1N`, for which the melting point was 190 to 192 °C.
In turn, `NC(=O)c1cnc2c(cc([N+](=O)[O-])c3nncc32)c(-c2ccccc2Cl)n1` had a melting point of over 340 °C.
`Cc1cccc(C)c1Sc1c(O)cc(-c2ccccc2)oc1=O`: the melting point fell in the range of 248 to 249 °C.
As to `C[Si](C)(C)CCOCn1ccnc1-c1c(N)n(CC2CC2)c2nc(Cl)ccc2c1=O`, the melting point was found to be 70 °C.
The compound `COc1ccc(C(=O)Nc2ccncc2)c2c3ccccc3n(Cc3ccc(F)cc3)c12` had a melting point of 230 to 232 °C.
`CC(C)(C)OC(=O)N[C@H](C(=O)N1CCC[C@H]1C(=O)OCc1ccccc1)C(C)(C)C` displayed a melting point of 174 °C.
`O=C(Oc1cc(F)ccc1Br)c1cc2cc(CCl)ccc2oc1=O` came in with a melting point of 203 to 205 °C.
With `NC(=O)N(O)Cc1ccsc1`, the melting point lay in the range of 129 to 131 °C.
The value for `O=C1CCC2=C(c3ccc(Cl)cc3)c3ccccc3C2N1` (configuration not stated) was 236 to 238 °C.
Then `O=C(O)[C@H](Cc1ccccc1)C[C@@H](Cc1ccccc1)C(=O)N[C@@H](COCc1ccccc1)C(=O)O`, with 149 to 151 °C; and `CC1(C)SC(c2ccccc2C(=O)O)NC1C(=O)O` (configuration not stated), with 185 to 186 °C; and `COc1cc2c(Nc3ccc(Cl)cc3F)ncnc2cc1OCCCSc1nccn1C`, with 199 to 201 °C.
The value for `CC(=O)NC[C@H]1CN(c2ccc(C(=O)c3ccc[nH]3)cc2)C(=O)O1` was 202 to 205 °C; that for `COC(=O)Cc1cc(NC(=O)OC(C)(C)C)c(N)cc1C#Cc1ccccc1` was 130 °C.
With `O=C(O)Cc1ccccc1OCCCc1cn(-c2ccc(C(F)(F)F)cn2)nc1C1CCCCC1`, the melting point was in the range of 127 to 128 °C.
`NS(=O)(=O)c1ccc(F)c(F)c1`: the melting point lay in the range of 89 to 91 °C.
For the compound `Cc1oc(-c2ccccc2)nc1COc1ccc(COc2ccc3ccccc3c2CC(=O)O)cc1`, the melting point was in the range of 187 to 188 °C.
On to `O=C(/C=C/[C@@H]1[C@H]2CC(=O)O[C@H]2C[C@H]1OC(=O)c1ccc(-c2ccccc2)cc1)CCc1ccccc1`, for which the melting point was 129 to 130 °C.
Then `Cc1cc(C=C2SC(=O)NC2=O)ccc1-c1cccc(CN(C)C(=O)OC(C)(C)C)c1`, with 156 °C.
The compound `COc1ccc(N)c(C2Cc3ccccc3N2)c1` (configuration not stated) showed a melting point of 120 to 123 °C.
The value for `CCOC(=O)c1ccc2c(c1)sc1ccc(C)cc12` was 83 to 87 °C; that for `CN1CCC(=C2c3ccccc3COc3ccc(Br)cc32)CC1` was 131 to 132 °C.
For the compound `FC(F)(F)Sc1c(-c2ccc(Cl)cc2)[nH]c(Br)c1Br`, the melting point lay in the range of 107 to 113 °C.
With `CCCCCCCN(CC)C(=O)Cc1ccc(N)cc1`, the melting point fell in the range of 172 to 174 °C.
In the case of `CCOc1ccc(C2=NN(CCCCCC(=O)O)C(=O)[C@H]3CC=CC[C@@H]23)cc1OCC` (relative stereo), the melting point lay within 97 to 99 °C.
Then `CCOCCOc1ccc(COc2ccc3c(c2)C=C(C(=O)O)CCS3(=O)=O)cc1`, with 256 to 258 °C; and `Cc1cc(O)n(-c2ccc(N3CCOCC3)nn2)n1`, with 189 to 192 °C.
`C1=C(c2ccccc2)CCN(c2nsc3ccccc23)C1` yielded a melting point of 272 to 273 °C.
The value for `COc1ccc2c(c1OCC#N)CCCC2` was 50 to 51 °C.
`Cc1cc(C(=O)O)ccc1-c1ccccc1C(F)(F)F`: the melting point was 171 to 174 °C.
The compound `COc1cc2nc(Cl)nc(N3CCN(C(=O)Nc4ccc(Oc5ccccc5)cc4)CC3)c2cc1OC` yielded a melting point of 178 to 179 °C.
Compound `CC(CC(=O)Nc1cc(Cc2n[nH]c(=O)c3ccccc23)ccc1F)C(=O)O` (configuration not stated) came in with a melting point of 140 to 144 °C.
For the compound `CN1C(=O)CC[C@]2(C)c3ccc(-c4ncccn4)cc3CC[C@@H]12`, the melting point was in the range of 160 to 162 °C.
The value for `Cc1ccc(C23CCC(Cl)(CC2)CC3)cc1` was 105 °C; that for `CSc1ncccc1NC(=O)CCCCCSc1nc2ccccc2s1` was 118 to 119 °C.

The values are drawn from a melting point compilation (Tetko et al.; mined from patent text by program, amines drawn as free bases though some values may be those of a salt).
